The source of these data is patent US7033580B2, “Hair-growing agent” (priority 1996, dated 2006).

The test system of experiment [1] is protein kinase C (PKC). Description: PKC-inhibiting activity measuring method (Kikkawa et al.). Type of experiment: biochemical, rat. Particulars: ratio, selectivity PKC over PKA.
Method: (§1) (1) Method for Measuring PKC-inhibiting Activity
(§2) Precisely, 10 μl of a sample to be tested for determining its activity is added to 250 μl of a solution comprising 2.5 μmols of magnesium acetate, 50 μg of histone Type IIIS (produced by Sigma Co.), 20 μg of phosphatidylserine, 0.8 μg of diolein, 25 μmols of calcium chloride, 5 μg of a crude enzyme (as partially purified from a rat brain according to the Kikkawa et al's method) and 5 μmols of Tris-HCl buffer (pH 7.5), and incubated therein at 30° C. for 3 minutes.
The target in experiment [2] is T1, protein kinase C (PKC).
T1 construct: PKC-IC50; other: crude enzyme partially purified from rat brain
Described as above. Type of experiment: biochemical, rat. Particulars: crude enzyme partially purified from rat brain.
Method: as §1, §2

For experiment [3], the target named is protein kinase A (PKA) (Bos taurus, UniProt P00517). The experiment in a line: PKA-inhibiting activity measuring method (Kuo et al.). The class given is biochemical. Particulars: crude enzyme partially purified from calf heart. As for the experimental part:
(2) Method for Measuring PKA-inhibiting Activity
To measure the PKA-inhibiting activity of a protein kinase inhibitor, referred to is the Kuo et al's method (see Biochemistry, 64, 1349, 1969).
Precisely, 10 μl of a sample to be tested for determining its activity is added to 250 μl of a solution comprising 5 μmols of Tris-HCl buffer (pH 6.8), 2.5 μmols of magnesium acetate, 100 μg of histone Type IIS (produced by Sigma Co.), 0.25 nmols of c-AMP and 200 μg of a crude enzyme (as partially purified from a calf heart according to the Kuo et al's method), and incubated therein at 30° C. for 3 minutes.
After the completion of the incubation, 1.25 nmols of [g-^32P]ATP (from 5×10^3 to 10×10^3 cpm/nmol) is added to the system, and phosphorylation reaction is carried out at 30° C. for 3 minutes, and thereafter the reaction is terminated by adding 25% trichloroacetic acid thereto.
The resulting reaction mixture is filtrated through a cellulose acetate membrane (pore size: 0.45 μm) (produced by Toyo Filter Co.), and the membrane is washed four times with 5% trichloroacetic acid, and thereafter the radioactivity of the residue remained on the membrane is measured to be a value of the sample.
On the other hand, the same process as described above is repeated without adding the sample to the system, and the radioactivity is obtained to be a control value.

Experiment [4] has as its system Mouse hair-follicle cells. The experiment in a line: Hair growth promoting effect in mouse hair-follicle cell culture (Neutral Red). The class given is cell-based. Particulars: for Relative Degree of Cell Growth, vehicled on the degree of cell growth of 100 in Control: 5 days. As for the experimental part: Mouse hair-follicle cells were cultivated and collected, according to the modified method of the Tanigai et al's method (see Archives of Dermatological Research, 284, 290–296, 1992) while suitably modifying the method.
That is, the skin was peeled from the back of a 4-day age C3H mouse (bought from Nippon Charles River Co.), and processed with an MEM (Minimum Essential Medium, Eagle) containing 500 units/ml Disperse (produced by Godo Shusei Co.) and 5% FCS, at 4° C. for 16 hours.
The epidermis was removed from said skin sample, and the resulting dermis layer was processed with a DMEM (Dulbecco's Modified Eagle Medium) containing 0.25% collagenase N-2 (produced by Nitta Gelatin Co.) and 10% FCS, at 37° C. for 1 hours, to prepare a dermis suspension.
This dermis suspension was filtrated through a 212-micron nylon mesh (produced by Nippon Rikagaku Kikai KK), and the resulting filtrate was centrifuged at 1,000 rpm for 5 minutes to obtain hair-follicle tissue-containing pellets.
The resulting pellets were suspended in a Ca-Mg-free PBS (Dulbecco's Phosphate-Buffered Saline), using a pipette, and then statically left as it was for 15 minutes, whereby the hair-follicle tissue was precipitated.
The thus-obtained hair-follicle tissue was repeatedly processed for a total of three times according to the same process as above comprising the addition of a Ca-Mg-free PBS, the suspension with a pipette, and the precipitation for 15 minutes.
The hair-follicle tissue thus obtained finally was processed with 0.1% EDTA-0.25% trypsin (produced by Gibco Co.) at 37° C. for 5 minutes, to which was then added a DMEM containing 10% FCS. Thus was prepared herein a hair-follicle tissue cell suspension comprising 3×10^5 cells/ml.
This hair-follicle tissue cell suspension was pipetted into a 24-well collagen-coated plate (produced by Iwaki Glass Co.) in an amount of 1 ml/well, and cultivated at 37° C. in 5% CO2 for 24 hours.
The resulting culture was then subjected to medium exchange with an MCDB153 medium (produced by Kyokuto Pharmaceutical Co.) containing 5 mg/liter insulin from bovine (produced by Sigma Co.), 5 μg/liter mouse EGF (produced by Takara Shuzo Co.), 40 mg/liter bovine pituitary extract (produced by Kyokuto Pharmaceutical Co.), 10 mg/liter human transferrin (produced by Sigma Co.), 0.4 mg/liter hydrocortisone (produced by Sigma Co.), 0.63 μg/liter progesterone (produced by Collaborative Research Co.), 14 mg/liter O-phosphoethanolamine (produced by Sigma Co.), 6.1 mg/liter ethanolamine (produced by Sigma Co.), 50 U/ml penicillin (produced by Wako Co.), 50 μg/ml streptomycin (produced by Wako Co.), and an DMSO solution comprising a PKC inhibitor of the invention (this was added in an amount of 1/100 by volume relative to the medium), and then further cultivated at 37° C. in 5% CO2 for 5 days. During the incubation, the medium was exchanged with a fresh one every other day.
As the control, the cell culture was cultivated in the same manner as above, except that only DMSO of 1/100 by volume relative to the medium was added to the medium in place of the PKC inhibitor-containing DMSO solution.
To determine the degree of cell growth, referred to herein was a known method of using Neutral Red (see Journal of Tissue Culture Method, 9, 1, 7–9, 1984). […]
The absorbance of the extract at 540 nm was measured, from which was obtained the degree of growth of the cells.

In experiment [5] the target is protein kinase C (PKC). Particulars: Excerpt from BIO/TECHNOLOGY, 8, 732, 1990, cited from earlier work.
The target of experiment [6] is protein kinase A (PKA). Particulars: Excerpt from BIO/TECHNOLOGY, 8, 732, 1990; cited from earlier work.
Experiment [7] concerns hair-follicle organ culture. Particulars: British Journal of Dermatology, 133, 5, 686–693, 1995; cited from earlier work.

Where two headings read alike, the source gives them in different places.

With `CCCCCCCCCCCCCCCC(=O)OC(CC(=O)O)C[N+](C)(C)C.[Cl-]` (racemic) [Palmitoyl-DL-carnitine Hydrochloride, palmitoyl-DL-carnitine hydrochloride], the PKA-IC50/PKC-IC50 with protein kinase C (PKC) [1] was more than 3. Besides, the half-maximal inhibitory concentration (IC50) was 100 µM against protein kinase C (PKC) [2] and more than 300 µM against protein kinase A (PKA) [3]. Besides, the “Relative Degree of Cell Growth, vehicled on the degree of cell growth of 100 in Control” value (“Relative Degree of Cell Growth, vehicled” for short) in experiment [4] (Concentration 10 μM) was determined as 170.
With `CC1CNCCN1S(=O)(=O)c1cccc2cnccc12` (stereo not shown) [Composition H-7, 1-(5-Isoquinolinylsulfonyl)-2-methylpiperazine], the 50% inhibitory concentration (IC50) at protein kinase C (PKC) [5] is 15 µM; on protein kinase A (PKA) [6] it was 13 µM. Moreover, in the experiment on protein kinase C (PKC) [5] (ratio), the PKA-IC50/PKC-IC50 is 0.87. Besides, in experiment [7], the “effect on hair growth retardation by 12-O-tetragalloyl-phorbol-13-acetate (in words)” value is “release the hair growth-retarding activity”.
On to `COC(=O)[C@@]1(O)C[C@H]2O[C@]1(C)n1c3ccccc3c3c4c(c5c6ccccc6n2c5c31)C(=O)NC4` [Composition K252a], for which the IC50 on protein kinase A (PKA) [6] is 0.02 µM. For the same compound, the “effect on growth of mouse hair-follicle cells (in words)” value in experiment [4] is reported as “inhibited the growth of mouse hair-follicle cells”.
Turning to `CN[C@@H]1C[C@H]2O[C@@](C)([C@@H]1OC)n1c3ccccc3c3c4c(c5c6ccccc6n2c5c31)C(=O)NC4` [Staurosporine], the “effect on growth of mouse hair-follicle cells (in words)” value in experiment [4] is listed as “inhibited the growth of mouse hair-follicle cells”.
For the compound calphostin C, the PKA-IC50/PKC-IC50 in the experiment on protein kinase C (PKC) [1] is listed as more than 1000. In addition, the results for the IC50 against protein kinase C (PKC) [2] and on protein kinase A (PKA) [3] were 0.05 µM and more than 50 µM, respectively. Moreover, the “Relative Degree of Cell Growth, vehicled” value in experiment [4] (Concentration 0.1 μM) is 160.
For the compound polymyxin B sulfate, the PKA-IC50/PKC-IC50 with protein kinase C (PKC) [1] was more than 10. Besides, the IC50 is 10 µM against protein kinase C (PKC) [2] and more than 100 µM against protein kinase A (PKA) [3]. In experiment [4] (Concentration 10 μM), the “Relative Degree of Cell Growth, vehicled” value was found to be 360.
